Assay results taken from patent US20150246907A1 (ETH Zurich, priority 2012, published 2015).
In brackets after ≈: the same amount, converted by molar mass.

Test system: Mycobacterium tuberculosis strain H37Rv
Assay: Minimal inhibitory concentration (MIC) by resazurin microtitre assay (REMA)
Assay type: cell-based
Details: for MIC: Mycobacterium tuberculosis, 168 h, M. tuberculosis H37Rv, REMA, 7 days (10 generations), 96-well plate

## CC(C)[C@@H]1OC(=O)[C@H](C)[C@H](O)[C@H](Cc2cccnc2)NC(=O)[C@@H](NC(=O)c2ncccc2O)[C@@H](C)OC1=O [Analog 100a]
  MIC: 12.5 µg/mL (≈ 23.6 µM)

## CC(C)[C@H]1OC(=O)[C@H](C)[C@H](O)[C@H](Cc2cccnc2)NC(=O)[C@@H](NC(=O)c2ncccc2O)[C@@H](C)OC1=O [Analog 100b]
  MIC: 1.56 µg/mL (≈ 2.95 µM)
Strain H37Rv, statement in words
  activity against Mycobacterium tuberculosis (strain H37Rv) compared with pyridomycin: in the same range of inhibitory activity as for pyridomycin
